The values that follow come from ChEMBL document CHEMBL4706737, “PROTAC-Mediated Degradation of Bruton's Tyrosine Kinase as a Therapeutic Strategy for Cancer” (ACS Med Chem Lett, 2021).

In this assay the target is Protein cereblon/Tyrosine-protein kinase BTK (Homo sapiens, UniProt Q06187+Q96SW2). The assay is described as follows: Protac activity at E3 ubiquitin ligase/BTK in human Ramos cells assessed as induction of BTK degradation measured after 16 hrs by ELISA. It counts as cell-based.
Sequence of Protein cereblon/Tyrosine-protein kinase BTK (Q06187 whole entry): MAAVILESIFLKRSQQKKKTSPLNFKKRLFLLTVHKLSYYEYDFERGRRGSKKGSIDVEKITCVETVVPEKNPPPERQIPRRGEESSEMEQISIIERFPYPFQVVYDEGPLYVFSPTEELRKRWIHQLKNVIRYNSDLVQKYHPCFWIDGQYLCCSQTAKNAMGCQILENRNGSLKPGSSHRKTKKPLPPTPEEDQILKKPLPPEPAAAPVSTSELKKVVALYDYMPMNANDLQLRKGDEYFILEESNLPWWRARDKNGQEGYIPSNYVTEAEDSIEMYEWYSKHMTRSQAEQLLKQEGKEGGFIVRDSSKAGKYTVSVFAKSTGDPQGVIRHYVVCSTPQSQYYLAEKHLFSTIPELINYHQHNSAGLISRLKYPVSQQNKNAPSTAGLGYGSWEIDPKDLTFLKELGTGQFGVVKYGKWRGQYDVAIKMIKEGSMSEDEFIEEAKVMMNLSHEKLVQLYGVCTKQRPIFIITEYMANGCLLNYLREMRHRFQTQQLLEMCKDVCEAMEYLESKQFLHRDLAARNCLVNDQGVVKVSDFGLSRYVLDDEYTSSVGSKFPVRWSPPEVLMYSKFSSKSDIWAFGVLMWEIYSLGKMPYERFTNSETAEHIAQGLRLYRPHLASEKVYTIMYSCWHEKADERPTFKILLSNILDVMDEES
Sequence of Protein cereblon/Tyrosine-protein kinase BTK (Q96SW2 whole entry): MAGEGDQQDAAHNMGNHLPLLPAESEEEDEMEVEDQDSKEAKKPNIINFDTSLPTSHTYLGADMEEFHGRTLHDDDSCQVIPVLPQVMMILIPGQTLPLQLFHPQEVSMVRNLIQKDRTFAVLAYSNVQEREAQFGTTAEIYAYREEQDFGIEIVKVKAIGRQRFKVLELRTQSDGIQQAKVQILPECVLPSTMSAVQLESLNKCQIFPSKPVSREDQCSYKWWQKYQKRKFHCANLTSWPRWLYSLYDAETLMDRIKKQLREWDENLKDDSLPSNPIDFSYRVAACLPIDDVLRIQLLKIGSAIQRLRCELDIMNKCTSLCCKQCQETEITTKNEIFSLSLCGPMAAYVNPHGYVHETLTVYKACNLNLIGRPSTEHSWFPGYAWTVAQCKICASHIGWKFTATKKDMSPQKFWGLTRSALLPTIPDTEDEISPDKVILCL
The term DC50 denotes the concentration giving 50% degradation. On to `NC(=O)c1c(-c2ccc(Oc3ccccc3)cc2)nn2c1NCC[C@H]2C1CCN(C(=O)CCN2CCN(C(=O)CNc3ccc4c(c3)C(=O)N(C3CCC(=O)NC3=O)C4=O)CC2)CC1` (some centres not stated), for which the DC50 was determined as 2.9 nM.

Regarding `NC(=O)c1c(-c2ccc(Oc3ccccc3)cc2)nn2c1NCC[C@H]2C1CCN(C(=O)c2cn(CCOCCOCCOCCOCCOCCOCCNc3cccc4c3C(=O)N(C3CCC(=O)NC3=O)C4=O)nn2)CC1` (some centres not stated), the DC50 is 107 nM.

Turning to `NC(=O)c1c(-c2ccc(Oc3ccccc3)cc2)nn2c1NCC[C@H]2C1CCN(C(=O)c2cn(CCOCCOCCOCCOCCOCCNc3cccc4c3C(=O)N(C3CCC(=O)NC3=O)C4=O)nn2)CC1` (some centres not stated), the DC50 was 78 nM.

As for `CN(CC1CCN(C(=O)c2ccc(N3CCC(=O)NC3=O)cc2)CC1)C1CC(C(=O)N2CCC([C@@H]3CCNc4c(C(N)=O)c(-c5ccc(Oc6ccccc6)cc5)nn43)CC2)C1` (some centres not stated), the 50% degradation concentration (DC50) came to 7.2 nM.

Turning to `NC(=O)c1c(-c2ccc(Oc3ccccc3)cc2)nn2c1NCC[C@H]2C1CCN(C(=O)c2cn(CCOCCOCCOCCOCCOCCNc3ccc4c(c3)C(=O)N(C3CCC(=O)NC3=O)C4=O)nn2)CC1` (some centres not stated), the DC50 turned out to be 78 nM.

Consider `NC(=O)c1c(-c2ccc(Oc3ccccc3)cc2)nn2c1NCC[C@H]2C1CCN(C(=O)CCCc2ccc(NC(=O)CNc3ccc4c(c3)C(=O)N(C3CCC(=O)NC3=O)C4=O)cc2)CC1` (some centres not stated), for which the DC50 is 28 nM.

Take `NC(=O)c1c(-c2ccc(Oc3ccccc3)cc2)nn2c1NCC[C@H]2C1CCN(C(=O)c2cn(CCOCCOCCOCCOCCNc3cccc4c3C(=O)N(C3CCC(=O)NC3=O)C4=O)nn2)CC1` (some centres not stated): the DC50 turned out to be 68 nM.

For `NC(=O)c1c(-c2ccc(Oc3ccccc3)cc2)nn2c1NCC[C@H]2C1CCN(C(=O)c2cn(CCOCCOCC(=O)Nc3ccc4c(c3)C(=O)N(C3CCC(=O)NC3=O)C4=O)nn2)CC1` (some centres not stated), the DC50 worked out at 34 nM.

For the compound `NC(=O)c1c(-c2ccc(Oc3ccccc3)cc2)nn2c1NCC[C@H]2C1CCN(C(=O)CCCN2CCN(C(=O)CNc3ccc4c(c3)C(=O)N(C3CCC(=O)NC3=O)C4=O)CC2)CC1` (some centres not stated), the DC50 was 35 nM.

As for `NC(=O)c1c(-c2ccc(Oc3ccccc3)cc2)nn2c1NCC[C@H]2C1CCN(C(=O)CCC2CCC(N3CCN(c4ccc5c(c4)C(=O)N(C4CCC(=O)NC4=O)C5=O)CC3)CC2)CC1` (some centres not stated), the DC50 was 17 nM.

Consider `CN(CCC(=O)N1CCC([C@@H]2CCNc3c(C(N)=O)c(-c4ccc(Oc5ccccc5)cc4)nn32)CC1)CC1CCN(c2ccc3c(c2)C(=O)N(C2CCC(=O)NC2=O)C3=O)CC1` (some centres not stated), for which the 50% degradation concentration (DC50) is 35 nM.

With `NC(=O)c1c(-c2ccc(Oc3ccccc3)cc2)nn2c1NCC[C@H]2C1CCN(C(=O)CCc2ccc(N3CCN(c4ccc5c(c4)C(=O)N(C4CCC(=O)NC4=O)C5=O)CC3)cc2)CC1` (some centres not stated), the DC50 amounted to 74 nM.
